Measurements published in patent US4812482A, “Application of α-[[(2-hydroxy-1, 1-dimethyl-ethyl) amine] methyl] benzene methanol hydrochloride (EL-508) as a drug with antiinflammatory action” (Especialidades Latinas Medicamentos Universales, S.A. …, priority 1987, dated 1989).
Where a name gives a salt, the structure may show the parent alone. Read-outs that look alike come from different tables or passages of the source.

Legend:
[1] = tested on: carrageenin peritonitis; experiment: carrageenin-induced peritonitis, oral; assay type: in vivo; conditions: 100 mg/Kg
[2] = tested on: formalin peritonitis; experiment: formalin-induced peritonitis, oral; assay type: in vivo; conditions: 100 mg/Kg
[3] = tested on: acute inflammation; experiment: experiments of acute inflammation, oral and topical, summary; assay type: in vivo
Text: In looking for a drug with intense topical antiinflammatory activity and good tolerance, the compound α-[[(2-hydroxy-1, 1-dimethyl-ethyl) amine]methyl]benzene methanol hydrochloride was syntheiszed and developed, and its chemical structure is completely different from that of conventional non-steroid anti-inflammatory drugs.

[4] = tested on: adrenalectomized rats; experiment: antiinflammatory effect in adrenalectomized rats; assay type: in vivo
[5] = tested on: peripheral blood flow; experiment: peripheral blood flow; conditions: in vivo
[6] = acute toxicity LD50, rat; conditions: in vivo
[7] = tested on: muscular-ligamentous pathological processes: luxations, sprains, contusions; experiment: clinical trial in muscular-ligamentous pathological processes, 6% aerosol; assay type: in vivo, human
Text: Several clinical trials have been carried out with different pharmaceutical compositions with α-[[(2-hydroxy-1, 1-dimethyl-ethyl) amine]methyl]benzene methanol hydrocholride (EL-508) as active principle. In the 6% aerosol pharmaceutical composition the therapeutic action was studied in muscular-ligamentous pathological processes: luxations, sprains, contusions and the like.

[8] = tested on: rats; experiment: chronic toxicity over six months, rats; assay type: in vivo; conditions: p.o., up to 100 mg/kg/day
[9] = tested on: formol oedema; experiment: formol-induced acute oedema, oral route; assay type: in vivo; conditions: rat, dose which produces 50% of oedema inhibition
Text: (§1) ED50 are indicated, these corresponding to the dose which produces 50% of oedema inhibition.

[10] = tested on: vascular permeability (xylol); experiment: vascular/capillary permeability, xylol-induced extravasation; assay type: in vivo; conditions: for reduction of extravasation induced by xylol: solution for topical application
Text: (§2) In these tests Benzidamine HC1 lacked action.

[11] = acute and chronic toxicity and tolerance, summary; conditions: in vivo
[12] = tested on: carrageenin oedema; experiment: carrageenin-induced acute oedema, oral route; assay type: in vivo; conditions: rat, dose which produces 50% of oedema inhibition
Text: as §1

[13] = tested on: skin, genital and conjunctival mucous membranes; experiment: topical tolerance in human volunteers; assay type: in vivo; conditions: solution
[14] = tested on: kaolin oedema; experiment: kaolin-induced acute oedema, oral route; assay type: in vivo; conditions: rat, dose which produces 50% of oedema inhibition
Text: as §1

[15] = tested on: skin, conjunctive and vaginal mucous membranes; experiment: topical tolerance of the aqueous solution after repeated applications; assay type: in vivo
[16] = tested on: carrageenin oedema; experiment: carrageenin oedema, topical application; assay type: in vivo; conditions: 6% aqueous or alcoholic solutions
Text: (§3) Further, it is to be noted that the antiinflammatory activity of EL-508, after its topical application, in 6% aqueous or alcoholic solutions in acute experimental processes, is summarized in the following table in comparison to 6% benzidamine HC1 as a reference drug: […]

[17] = ulcerogenic action; conditions: in vivo
[18] = tested on: vascular permeability (chloroform); experiment: vascular/capillary permeability, chloroform-induced extravasation; assay type: in vivo; conditions: for reduction of extravasation induced by chloroform: solution for topical application
Text: as §2

[19] = tested on: inflammatory processes; experiment: therapeutic index in the different experimental models; assay type: in vivo; conditions: vs reference compounds
[20] = tested on: vaginitis of unknown ethiology or atrophic vaginitis and specific infectious vaginitis; experiment: clinical trials in vaginitis, vaginal solutions; assay type: in vivo, human; conditions: vaginal solutions at 5% and 0,2%
Experimental: Further, as to the pharmaceutical forms of solutions for vaginal applications at 5% and 0,2% various clinical trials were performed in patients with vaginitis of unknown ethiology or atrophic vaginitis and specific infectious vaginitis.

[21] = tested on: chronic inflammatory processes; experiment: experimental chronic inflammatory processes; assay type: in vivo
[22] = acute toxicity LD50, mouse; conditions: in vivo
[23] = tested on: skin, genital and conjunctival mucous membranes; design: species or system animals; conditions: in vivo
[24] = tested on: ovoalbumin oedema; experiment: ovoalbumin oedema, topical application; assay type: in vivo; conditions: 6% aqueous or alcoholic solutions
Text: as §3

[25] = tested on: carrageenin abscess; experiment: carrageenin abscess, oral route; assay type: in vivo; conditions: rat, dose which produces 50% of oedema inhibition
Text: as §1

[26] = tested on: croton oil oedema; experiment: croton oil oedema, topical application; assay type: in vivo; conditions: 6% aqueous or alcoholic solutions
Text: as §3

[27] = tested on: ovoalbumin oedema; experiment: ovoalbumin-induced acute oedema, oral route; assay type: in vivo; conditions: rat, dose which produces 50% of oedema inhibition
Text: as §1

[28] = tested on: kaolin oedema; experiment: kaolin oedema, topical application; assay type: in vivo; conditions: 6% aqueous or alcoholic solutions
Text: as §3

[29] = tested on: dogs; experiment: chronic toxicity over six months, dogs; assay type: in vivo; conditions: p.o., up to 100 mg/kg/day

Compound: CCCCC1C(=O)N(c2ccccc2)N(c2ccc(O)cc2)C1=O (centres unmarked) [Oxyphenylbutazone, reference compound]
- percentage of inhibition, Carrageenin perit. [1]: 58,8%
- percentage of inhibition, Formalin perit. [2]: 7,5%

Compound: CC(C)(CO)NCC(O)c1ccccc1 (stereo not drawn) [EL-508, α-[[(2-hydroxy-1,1-dimethyl-ethyl)amine]methyl]benzene methanol hydrochloride]
- antiinflammatory activity ([3]; oral and topical route, acute inflammation): great antiinflammatory activity
- antiinflammatory effect compared with reference products ([3]; vs fenylbutazone, pyridil-3-methylamine salicilate, benzidamine salicilate, etc.): higher than the referenced products used
- antiinflammatory effect [4]: antiinflammatory effect is direct, without central or hormaonal stimulus
- effect on peripheral blood flow [5]: did not modify at all peripheral blood flow
- LD50 ([6]; ip): 350 mg/kg
- LD50 ([6]; iv): 80 mg/kg
- LD50 ([6]; po): 2080 mg/kg
- percentage of inhibition, Carrageenin perit. [1]: 70,8%
- activity on carrageenin peritonitis compared with reference drugs ([1]; equal doses): more active than the reference drugs
- therapeutic action [7]: therapeutic action higher than pyiridil-3-methyl amine salicylate and placebo
- percentage of inhibition, Formalin perit. [2]: 28,1%
- activity on formalin-induced peritonitis compared with reference drugs ([2]; equal doses): more active than the reference drugs
- undesirable effects in chronic toxicity study [8]: no undesirable effects attributable to the product
- ED50 [9]: 21.7 mg/kg
- activity against capillary permeability increases induced by xylol ([10]; all the administration routes): highly active
- reduction of extravasation induced by xylol [10]: 50%
- acute and chronic toxicity [11]: acute and chronic toxicity was very low
- systematic and topical tolerance [11]: systematic and topical tolerance has been demonstrated
- undesirable side effects [11]: no undesirable side effects
- ED50 [12]: 29.8 mg/kg
- topical tolerance [13]: perfectly tolerated
- ED50 [14]: 44.9 mg/kg
- topical tolerance [15]: well tolerated
- Inhibition % of oedemas, carrageenin [16]: 48%
- ulcerogenic action [17]: slight ulcerogenic action
- activity against capillary permeability increases induced by chloroform ([18]; all the administration routes): highly active
- reduction of extravasation induced by chloroform [18]: 50%
- therapeutic indices [19]: considerably higher than for the reference compounds
- efficacy in vaginitis [20]: more efficent in these indications than iodic povidone and placebo
- activity on primary inflammatory phenomena [21]: demonstrated its activity on primary inflammatory phenomena
- LD50 ([22]; ip): 295 mg/kg
- LD50 ([22]; iv): 79 mg/kg
- LD50 ([22]; po): 1020 mg/kg
- topical tolerance [23]: perfectly tolerated
- Inhibition % of oedemas, ovoalbumin [24]: 40,6%
- ED50 [25]: 9.4 mg/kg
- Inhibition % of oedemas, Croton oil [26]: 30%
- ED50 [27]: 16.7 mg/kg
- Inhibition % of oedemas, Kaolin [28]: 47,5%
- undesirable effects in chronic toxicity study [29]: no undesirable effects attributable to the product

Compound: CN(C)CCCOc1nn(Cc2ccccc2)c2ccccc12 [Benzidamine HCl, reference compound]
- percentage of inhibition, Carrageenin perit. [1]: 31,3%
- percentage of inhibition, Formalin perit. [2]: 15,6%
- reduction of extravasation induced by xylol [10]: lacked action
- Inhibition % of oedemas, carrageenin [16]: 7%
- reduction of extravasation induced by chloroform [18]: lacked action
- Inhibition % of oedemas, ovoalbumin [24]: 42,0%
- Inhibition % of oedemas, Croton oil [26]: 44%
- Inhibition % of oedemas, Kaolin [28]: 0%

Compound: CCCCC1C(=O)N(c2ccccc2)N(c2ccccc2)C1=O [Fenilbutazone, reference compound]
- ED50 [12]: 200 mg/kg
- ED50 [25]: 80 mg/kg
- ED50 Ovoalbumin [27]: Inactive
